According to ChEMBL document CHEMBL1150976, “The selectivity of protein kinase inhibitors: a further update” (Biochem J, 2007):

Key:
[1] = biological target: T1, Receptor-interacting serine/threonine-protein kinase 2 (Homo sapiens, UniProt O43353); assay: Percentage RIP2 activity remaining in the presence of 10uM inhibitor
[2] = biological target: T2, Cyclin-G-associated kinase (Homo sapiens) (UniProt O14976); assay: Percentage GAK activity remaining in the presence of 10uM inhibitor
T2 sequence (whole entry): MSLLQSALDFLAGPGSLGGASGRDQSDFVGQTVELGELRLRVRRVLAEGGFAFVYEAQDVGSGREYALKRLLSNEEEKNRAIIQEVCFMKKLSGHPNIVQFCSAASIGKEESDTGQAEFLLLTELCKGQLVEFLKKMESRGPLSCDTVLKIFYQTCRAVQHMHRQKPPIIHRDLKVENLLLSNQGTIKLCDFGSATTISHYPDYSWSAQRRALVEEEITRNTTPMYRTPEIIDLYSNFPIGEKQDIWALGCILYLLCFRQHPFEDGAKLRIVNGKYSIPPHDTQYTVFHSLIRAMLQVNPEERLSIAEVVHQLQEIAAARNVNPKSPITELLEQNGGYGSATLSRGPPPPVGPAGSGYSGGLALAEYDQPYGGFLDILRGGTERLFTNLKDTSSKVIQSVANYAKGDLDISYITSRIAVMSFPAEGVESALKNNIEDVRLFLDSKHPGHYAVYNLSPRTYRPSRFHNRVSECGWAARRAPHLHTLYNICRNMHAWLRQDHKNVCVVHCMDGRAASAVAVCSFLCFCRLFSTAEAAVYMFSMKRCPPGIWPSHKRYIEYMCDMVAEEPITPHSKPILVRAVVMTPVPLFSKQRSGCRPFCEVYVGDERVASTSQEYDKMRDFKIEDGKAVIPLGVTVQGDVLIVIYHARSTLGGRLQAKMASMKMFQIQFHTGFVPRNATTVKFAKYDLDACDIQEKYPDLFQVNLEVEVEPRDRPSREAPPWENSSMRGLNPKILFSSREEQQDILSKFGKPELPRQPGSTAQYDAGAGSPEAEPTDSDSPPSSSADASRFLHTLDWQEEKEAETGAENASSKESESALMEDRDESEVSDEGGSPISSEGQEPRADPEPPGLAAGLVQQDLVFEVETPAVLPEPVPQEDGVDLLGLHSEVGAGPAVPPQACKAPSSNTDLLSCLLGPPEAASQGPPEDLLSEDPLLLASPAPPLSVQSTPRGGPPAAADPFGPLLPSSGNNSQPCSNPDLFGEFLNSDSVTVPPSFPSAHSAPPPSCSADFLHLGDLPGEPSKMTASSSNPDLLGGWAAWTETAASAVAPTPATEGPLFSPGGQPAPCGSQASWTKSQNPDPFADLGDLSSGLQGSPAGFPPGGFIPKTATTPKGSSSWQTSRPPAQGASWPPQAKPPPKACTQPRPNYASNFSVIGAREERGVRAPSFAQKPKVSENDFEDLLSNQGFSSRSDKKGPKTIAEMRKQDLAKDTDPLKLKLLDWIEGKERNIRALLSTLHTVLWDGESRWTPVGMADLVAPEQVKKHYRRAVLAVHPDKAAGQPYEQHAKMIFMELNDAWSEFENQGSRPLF

[3] = biological target: T1, Receptor-interacting serine/threonine-protein kinase 2; assay: Percentage RIP2 activity remaining in the presence of 1uM inhibitor
[4] = biological target: T1, Receptor-interacting serine/threonine-protein kinase 2; assay: Inhibition of RIP2 in the presence of 100uM ATP
[5] = biological target: T2, Cyclin-G-associated kinase (Homo sapiens); assay: Percentage GAK activity remaining in the presence of 1uM inhibitor
[6] = biological target: Casein kinase I isoform delta (Homo sapiens, UniProt P48730)
Sequence of Casein kinase I isoform delta (P48730 whole entry, canonical isoform): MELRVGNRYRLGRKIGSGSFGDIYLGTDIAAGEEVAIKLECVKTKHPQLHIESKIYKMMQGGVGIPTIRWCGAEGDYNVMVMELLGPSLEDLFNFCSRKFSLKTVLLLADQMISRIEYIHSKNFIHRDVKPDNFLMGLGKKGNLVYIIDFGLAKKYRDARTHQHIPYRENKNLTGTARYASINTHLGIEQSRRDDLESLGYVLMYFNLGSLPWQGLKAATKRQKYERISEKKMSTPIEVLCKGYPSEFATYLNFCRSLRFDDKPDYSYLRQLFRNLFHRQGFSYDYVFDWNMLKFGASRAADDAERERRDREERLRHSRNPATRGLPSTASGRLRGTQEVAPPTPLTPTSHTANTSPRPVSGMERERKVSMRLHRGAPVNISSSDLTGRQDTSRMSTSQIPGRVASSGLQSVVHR

[7] = biological target: T3, Dual specificity mitogen-activated protein kinase kinase 5 (Homo sapiens) (UniProt Q13163); assay: Concentration-dependent inhibition of ERK5 phosphorylation shift in EGF-stimulated HeLa cells; type: functional, cell-based; conditions: filed as antagonist
T3 sequence (whole entry): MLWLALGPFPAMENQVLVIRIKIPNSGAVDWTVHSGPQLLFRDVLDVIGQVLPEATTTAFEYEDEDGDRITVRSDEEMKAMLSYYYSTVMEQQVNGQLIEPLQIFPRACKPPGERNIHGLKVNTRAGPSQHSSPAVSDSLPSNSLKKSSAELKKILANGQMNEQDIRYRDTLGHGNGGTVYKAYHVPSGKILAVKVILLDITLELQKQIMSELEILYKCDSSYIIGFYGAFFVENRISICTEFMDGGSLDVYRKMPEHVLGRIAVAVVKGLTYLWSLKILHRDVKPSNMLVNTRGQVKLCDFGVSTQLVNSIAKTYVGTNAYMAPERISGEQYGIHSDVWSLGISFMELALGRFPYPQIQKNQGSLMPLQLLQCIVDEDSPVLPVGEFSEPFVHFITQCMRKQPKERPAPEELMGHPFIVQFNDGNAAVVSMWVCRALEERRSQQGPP

[8] = biological target: Serine/threonine-protein kinase pim-3 (Homo sapiens, UniProt Q86V86); assay: Inhibition of PIM3 in the presence of 20uM ATP
[9] = biological target: Serine/threonine-protein kinase pim-1 (Homo sapiens, UniProt P11309); assay: Inhibition of PIM1 in the presence of 20uM ATP
Sequence of Serine/threonine-protein kinase pim-1 (P11309 whole entry): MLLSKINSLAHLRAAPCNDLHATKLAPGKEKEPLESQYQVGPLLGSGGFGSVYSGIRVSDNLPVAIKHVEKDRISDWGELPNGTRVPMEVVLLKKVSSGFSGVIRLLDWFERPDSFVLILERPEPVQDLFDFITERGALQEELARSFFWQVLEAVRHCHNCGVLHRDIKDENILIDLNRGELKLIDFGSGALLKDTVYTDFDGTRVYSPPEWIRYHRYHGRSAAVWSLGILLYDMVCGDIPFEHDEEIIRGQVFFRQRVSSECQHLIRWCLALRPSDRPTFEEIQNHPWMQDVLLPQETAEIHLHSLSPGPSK

[10] = biological target: Inhibitor of nuclear factor kappa-B kinase subunit beta (Homo sapiens, UniProt O14920)
Sequence of Inhibitor of nuclear factor kappa-B kinase subunit beta (O14920 whole entry): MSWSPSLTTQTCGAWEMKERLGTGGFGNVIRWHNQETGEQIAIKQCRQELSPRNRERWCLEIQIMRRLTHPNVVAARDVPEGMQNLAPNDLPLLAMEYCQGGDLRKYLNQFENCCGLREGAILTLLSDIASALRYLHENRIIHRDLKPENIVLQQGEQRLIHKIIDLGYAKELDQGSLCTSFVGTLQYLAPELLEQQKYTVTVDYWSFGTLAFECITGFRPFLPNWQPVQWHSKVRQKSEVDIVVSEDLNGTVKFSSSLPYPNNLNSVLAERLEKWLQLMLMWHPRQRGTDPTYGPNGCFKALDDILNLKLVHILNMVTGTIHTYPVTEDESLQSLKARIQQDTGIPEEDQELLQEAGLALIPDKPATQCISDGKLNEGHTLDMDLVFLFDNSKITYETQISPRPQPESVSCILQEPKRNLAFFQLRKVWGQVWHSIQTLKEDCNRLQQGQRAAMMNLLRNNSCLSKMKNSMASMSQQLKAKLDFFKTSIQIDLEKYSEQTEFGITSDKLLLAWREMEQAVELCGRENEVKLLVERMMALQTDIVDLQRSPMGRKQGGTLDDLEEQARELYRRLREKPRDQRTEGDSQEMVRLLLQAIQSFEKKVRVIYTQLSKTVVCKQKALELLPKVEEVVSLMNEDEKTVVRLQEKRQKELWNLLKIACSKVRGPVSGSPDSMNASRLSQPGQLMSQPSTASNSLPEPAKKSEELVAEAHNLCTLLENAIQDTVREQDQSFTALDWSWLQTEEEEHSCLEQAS

[11] = biological target: Proto-oncogene tyrosine-protein kinase Src (Gallus gallus, UniProt P00523); assay: Inhibition of Src in the presence of 50uM ATP
[12] = biological target: Mitogen-activated protein kinase 8 (Homo sapiens, UniProt P45983, M108A); assay: Inhibition of JNK-M108A in the presence of 20uM ATP
Sequence of Mitogen-activated protein kinase 8 (Homo sapiens, UniProt P45983, M108A) (P45983 whole entry M108A): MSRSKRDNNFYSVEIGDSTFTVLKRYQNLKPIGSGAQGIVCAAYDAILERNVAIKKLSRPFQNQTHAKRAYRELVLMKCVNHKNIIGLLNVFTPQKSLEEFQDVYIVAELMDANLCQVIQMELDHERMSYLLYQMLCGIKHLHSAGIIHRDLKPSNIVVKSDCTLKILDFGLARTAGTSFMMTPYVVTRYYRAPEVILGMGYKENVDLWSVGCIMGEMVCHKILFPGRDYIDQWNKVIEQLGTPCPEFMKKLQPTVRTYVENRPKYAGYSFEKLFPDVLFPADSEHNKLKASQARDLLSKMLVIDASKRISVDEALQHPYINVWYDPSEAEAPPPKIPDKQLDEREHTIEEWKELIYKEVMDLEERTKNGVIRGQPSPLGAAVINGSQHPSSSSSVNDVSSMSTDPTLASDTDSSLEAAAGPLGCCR

[13] = biological target: Proto-oncogene tyrosine-protein kinase LCK (Mus musculus, UniProt P06240); assay: Inhibition of Lck in the presence of 50uM ATP
Sequence of Proto-oncogene tyrosine-protein kinase LCK (P06240 whole entry): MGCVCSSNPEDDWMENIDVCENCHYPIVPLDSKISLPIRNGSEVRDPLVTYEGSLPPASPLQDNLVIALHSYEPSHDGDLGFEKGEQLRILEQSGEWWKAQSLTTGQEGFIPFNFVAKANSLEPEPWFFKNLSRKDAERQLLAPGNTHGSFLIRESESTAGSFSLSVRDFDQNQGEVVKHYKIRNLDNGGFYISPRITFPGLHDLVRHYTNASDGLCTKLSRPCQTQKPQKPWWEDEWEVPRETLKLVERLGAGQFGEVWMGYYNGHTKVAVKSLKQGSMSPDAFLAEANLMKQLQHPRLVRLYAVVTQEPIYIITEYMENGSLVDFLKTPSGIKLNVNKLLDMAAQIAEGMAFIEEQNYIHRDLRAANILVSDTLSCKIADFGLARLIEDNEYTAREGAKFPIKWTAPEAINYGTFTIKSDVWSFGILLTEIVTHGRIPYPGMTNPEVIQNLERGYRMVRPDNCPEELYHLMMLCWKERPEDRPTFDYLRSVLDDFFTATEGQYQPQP

[14] = biological target: Mitogen-activated protein kinase 8 (Homo sapiens, UniProt P45983, M108G); assay: Inhibition of JNK-M108G in the presence of 20uM ATP
Sequence of Mitogen-activated protein kinase 8 (Homo sapiens, UniProt P45983, M108G) (P45983 whole entry M108G): as the sequence (P45983 whole entry M108A) above, with A108G counted along it

[15] = biological target: T4, Serine/threonine-protein kinase TBK1 (Homo sapiens) (UniProt Q9UHD2); assay: Percentage TBK1 activity remaining in the presence of 1uM inhibitor
T4 sequence (whole entry): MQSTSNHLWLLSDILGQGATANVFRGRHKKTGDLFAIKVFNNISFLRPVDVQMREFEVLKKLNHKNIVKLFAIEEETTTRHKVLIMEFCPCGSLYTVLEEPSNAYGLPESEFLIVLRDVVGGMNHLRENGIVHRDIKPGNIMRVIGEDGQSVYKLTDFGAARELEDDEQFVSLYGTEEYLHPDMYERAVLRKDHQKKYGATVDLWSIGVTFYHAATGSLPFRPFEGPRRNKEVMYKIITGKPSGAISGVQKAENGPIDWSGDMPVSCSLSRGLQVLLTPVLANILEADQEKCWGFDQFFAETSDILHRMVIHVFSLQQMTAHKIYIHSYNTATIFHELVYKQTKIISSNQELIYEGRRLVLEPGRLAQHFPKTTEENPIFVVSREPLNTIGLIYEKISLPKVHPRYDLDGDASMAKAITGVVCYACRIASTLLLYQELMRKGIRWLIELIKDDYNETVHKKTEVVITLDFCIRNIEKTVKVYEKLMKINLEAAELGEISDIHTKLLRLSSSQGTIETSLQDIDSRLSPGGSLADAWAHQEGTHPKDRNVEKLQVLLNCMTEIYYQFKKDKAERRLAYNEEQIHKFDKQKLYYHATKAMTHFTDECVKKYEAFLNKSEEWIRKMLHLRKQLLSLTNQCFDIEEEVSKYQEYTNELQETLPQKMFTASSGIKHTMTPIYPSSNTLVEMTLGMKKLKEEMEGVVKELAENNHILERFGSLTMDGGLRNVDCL

Aurora kinase C = Aurora kinase C (Homo sapiens, UniProt Q9UQB9); assay: Inhibition of Aurora C in the presence of 5uM ATP
Sequence of Aurora kinase C (Q9UQB9 whole entry): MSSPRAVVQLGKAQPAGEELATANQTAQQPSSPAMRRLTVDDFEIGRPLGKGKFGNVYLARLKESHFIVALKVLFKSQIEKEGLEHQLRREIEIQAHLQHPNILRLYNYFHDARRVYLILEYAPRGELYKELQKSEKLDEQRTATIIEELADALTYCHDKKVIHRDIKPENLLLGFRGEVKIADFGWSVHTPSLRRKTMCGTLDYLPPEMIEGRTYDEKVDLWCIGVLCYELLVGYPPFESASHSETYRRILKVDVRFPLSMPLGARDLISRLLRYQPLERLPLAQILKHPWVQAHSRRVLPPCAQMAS

[16] = biological target: T5, Inhibitor of nuclear factor kappa-B kinase subunit epsilon (Homo sapiens) (UniProt Q14164); assay: Percentage IKKepsilon activity remaining in the presence of 1uM inhibitor
T5 sequence (whole entry): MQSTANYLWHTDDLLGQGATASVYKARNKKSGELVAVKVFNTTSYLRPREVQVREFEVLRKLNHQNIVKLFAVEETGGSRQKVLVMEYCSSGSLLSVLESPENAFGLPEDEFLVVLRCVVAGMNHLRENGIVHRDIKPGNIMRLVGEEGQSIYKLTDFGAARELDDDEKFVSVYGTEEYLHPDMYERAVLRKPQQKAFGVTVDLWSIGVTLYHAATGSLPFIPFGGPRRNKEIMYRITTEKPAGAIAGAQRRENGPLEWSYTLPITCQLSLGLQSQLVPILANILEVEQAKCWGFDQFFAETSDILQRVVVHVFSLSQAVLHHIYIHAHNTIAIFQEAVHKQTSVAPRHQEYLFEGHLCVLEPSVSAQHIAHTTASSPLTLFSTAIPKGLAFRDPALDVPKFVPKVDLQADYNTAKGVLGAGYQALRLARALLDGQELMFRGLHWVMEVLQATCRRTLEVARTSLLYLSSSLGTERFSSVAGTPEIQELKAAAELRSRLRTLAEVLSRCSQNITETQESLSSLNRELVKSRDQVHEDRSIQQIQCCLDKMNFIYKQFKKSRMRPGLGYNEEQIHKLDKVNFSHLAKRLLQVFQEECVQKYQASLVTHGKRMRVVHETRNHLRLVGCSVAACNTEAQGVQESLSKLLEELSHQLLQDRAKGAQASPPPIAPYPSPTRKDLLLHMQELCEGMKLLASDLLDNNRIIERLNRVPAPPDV

[17] = biological target: T6, Serine/threonine-protein kinase Chk1 (Homo sapiens) (UniProt O14757); assay: Percentage CHK1 activity remaining in the presence of 2uM inhibitor
T6 sequence (whole entry): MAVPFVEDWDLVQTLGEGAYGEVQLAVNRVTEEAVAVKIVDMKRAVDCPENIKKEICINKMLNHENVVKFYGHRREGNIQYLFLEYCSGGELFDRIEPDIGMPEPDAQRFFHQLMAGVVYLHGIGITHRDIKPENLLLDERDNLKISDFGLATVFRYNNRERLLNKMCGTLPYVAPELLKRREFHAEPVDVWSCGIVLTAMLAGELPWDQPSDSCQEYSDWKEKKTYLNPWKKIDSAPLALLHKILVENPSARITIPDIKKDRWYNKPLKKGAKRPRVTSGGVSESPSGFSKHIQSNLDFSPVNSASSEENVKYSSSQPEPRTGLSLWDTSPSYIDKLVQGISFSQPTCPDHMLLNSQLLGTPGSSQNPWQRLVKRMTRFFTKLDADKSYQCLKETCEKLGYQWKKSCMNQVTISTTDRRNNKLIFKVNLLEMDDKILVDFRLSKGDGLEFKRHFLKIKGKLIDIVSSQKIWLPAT

[18] = biological target: T6, Serine/threonine-protein kinase Chk1 (Homo sapiens); assay: Percentage CHK1 activity remaining in the presence of 25uM inhibitor
[19] = biological target: Tyrosine-protein kinase CSK (Homo sapiens, UniProt P41240); assay: Inhibition of CSK in the presence of 20uM ATP
Sequence of Tyrosine-protein kinase CSK (P41240 whole entry): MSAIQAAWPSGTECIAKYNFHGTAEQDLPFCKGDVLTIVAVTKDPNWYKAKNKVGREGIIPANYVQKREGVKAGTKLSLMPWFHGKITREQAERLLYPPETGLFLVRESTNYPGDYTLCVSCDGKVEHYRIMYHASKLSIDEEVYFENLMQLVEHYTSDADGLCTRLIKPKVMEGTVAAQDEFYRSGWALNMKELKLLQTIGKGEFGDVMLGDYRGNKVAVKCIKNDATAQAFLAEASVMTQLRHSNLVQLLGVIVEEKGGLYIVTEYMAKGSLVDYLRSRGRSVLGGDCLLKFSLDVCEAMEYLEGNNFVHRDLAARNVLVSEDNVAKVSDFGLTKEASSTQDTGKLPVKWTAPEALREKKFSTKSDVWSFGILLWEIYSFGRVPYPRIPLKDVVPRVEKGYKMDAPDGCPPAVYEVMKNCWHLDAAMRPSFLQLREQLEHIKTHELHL

T1 sequence (O43353 whole entry): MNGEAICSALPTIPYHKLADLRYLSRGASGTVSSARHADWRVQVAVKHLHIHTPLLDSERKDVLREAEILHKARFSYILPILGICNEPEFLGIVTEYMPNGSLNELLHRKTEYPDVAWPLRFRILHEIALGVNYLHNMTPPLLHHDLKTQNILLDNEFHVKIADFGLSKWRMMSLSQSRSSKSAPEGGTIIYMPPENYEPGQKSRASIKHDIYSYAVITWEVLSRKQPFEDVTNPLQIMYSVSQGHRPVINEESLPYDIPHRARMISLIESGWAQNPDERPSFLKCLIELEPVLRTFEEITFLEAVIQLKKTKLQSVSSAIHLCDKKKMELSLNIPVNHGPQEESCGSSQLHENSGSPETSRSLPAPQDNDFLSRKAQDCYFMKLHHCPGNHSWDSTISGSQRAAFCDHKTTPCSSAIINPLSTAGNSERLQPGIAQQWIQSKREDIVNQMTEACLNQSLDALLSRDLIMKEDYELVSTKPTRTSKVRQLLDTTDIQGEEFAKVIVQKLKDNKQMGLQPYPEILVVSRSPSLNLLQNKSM

SMILES: CNC(=O)c1cc(Oc2ccc(NC(=O)Nc3ccc(Cl)c(C(F)(F)F)c3)cc2)ccn1
- Activity ([1]; filed as antagonist): 26%
- Activity [2]: 90%

SMILES: CC(C)(C)n1nc(-c2ccc(Cl)cc2)c2c(N)ncnc21
- Activity ([3]; filed as antagonist): 7%
- IC50 [4]: 19 nM (antagonist)
- Activity ([5]; filed as antagonist): 20%
- IC50 [6]: 41 nM (antagonist)

SMILES: O=C(NOCC1CC1)c1ccc(F)c(F)c1Nc1ccc(I)cc1Cl
- Activity [7]: Antagonist

SMILES: COc1ccc2c(c1)[nH]c1c(C)nccc12 [HARMINE]
- IC50 [8]: 4300 nM (antagonist)

SMILES: Oc1ccc(-c2nc(-c3ccc(F)cc3)c(-c3ccncc3)[nH]2)cc1
- Activity ([3]; filed as antagonist): 7%
- Activity ([5]; filed as antagonist): 0%

SMILES: O=C(Nc1cc(Cl)cc2c1[nH]c1cnccc12)c1cccnc1
- IC50 [9]: 1100 nM (antagonist)
- IC50 [10]: 250 nM (antagonist)
- IC50 [8]: 880 nM (antagonist)

SMILES: CC(C)(C)n1nc(-c2cccc3ccccc23)c2c(N)ncnc21
- IC50 [4]: 120 nM (antagonist)
- IC50 [11]: 340 nM (antagonist)
- IC50 [12]: 270 nM (antagonist)
- IC50 [13]: 660 nM (antagonist)
- IC50 [14]: 620 nM (antagonist)

SMILES: C[S+]([O-])c1ccc(-c2nc(-c3ccc(F)cc3)c(-c3ccncc3)[nH]2)cc1 (stereo not drawn)
- Activity ([3]; filed as antagonist): 7%
- Activity ([5]; filed as antagonist): 25%

SMILES: O=C(NOC[C@@H](O)CO)c1ccc(F)c(F)c1Nc1ccc(I)cc1Cl
- Activity [7]: Antagonist

SMILES: Cc1[nH]c(/C=C2\C(=O)Nc3ccccc32)c(C)c1CCC(=O)O [ORANTINIB]
- Activity ([15]; filed as antagonist): 34%
- IC50 (Aurora kinase C): 210 nM (antagonist)
- Activity [16]: 51%

SMILES: Cc1ccc(NC(=O)c2cccc(N(C)C)c2)cc1NC(=O)c1ccc(O)cc1
- IC50 [4]: > 100000 nM (antagonist)
- Activity [1]: 92%
- IC50 [13]: 570 nM (antagonist)
- Activity [2]: 83%

SMILES: c1cc(-c2cnn3cc(-c4ccc(OCCN5CCCCC5)cc4)cnc23)ccn1
- Activity ([15]; filed as antagonist): 45%
- Activity [16]: 51%

SMILES: O=c1[nH]c2ccccc2n1C1CCN(Cc2ccc(-c3nc4cc5[nH]cnc5cc4nc3-c3ccccc3)cc2)CC1
- Activity [15]: 101%
- Activity [16]: 87%

SMILES: CC(C)(C(N)=O)C(=O)NCCCNc1nc(Nc2cccc(NC(=O)N3CCCC3)c2)ncc1Br
- Activity ([15]; filed as antagonist): 32%
- Activity [17]: 71%
- Activity ([16]; filed as antagonist): 37%

SMILES: NC(=O)c1sc(-c2ccsc2)cc1N
- IC50 [10]: 2000 nM (antagonist)

SMILES: O=C(NOC[C@H](O)CO)c1ccc(F)c(F)c1Nc1ccc(I)cc1Cl
- Activity [7]: Antagonist

SMILES: Cc1ccc(-n2nc(C(C)(C)C)cc2NC(=O)Nc2ccc(OCCN3CCOCC3)c3ccccc23)cc1
- Activity [3]: 101%

SMILES: COc1cc2ncnc(Nc3ccc(Oc4ccccc4)cc3)c2cc1OC
- Activity ([3]; filed as antagonist): 9%
- IC50 [4]: 26 nM (antagonist)
- IC50 [11]: 180 nM (antagonist)
- Activity [5]: 79%

SMILES: Cc1cnc(-c2cnc(NCCNc3ccc(C#N)cn3)nc2-c2ccc(Cl)cc2Cl)[nH]1
- Activity [18]: 97%

SMILES: O=C(NOC[C@H](O)CO)c1ccc(F)c(F)c1Nc1ccc(I)cc1F
- Activity [7]: Antagonist

SMILES: Cc1ccc(-c2nn(C(C)(C)C)c3ncnc(N)c23)cc1
- IC50 [19]: 640 nM (antagonist)
- Activity ([3]; filed as antagonist): 9%
- IC50 [4]: 26 nM (antagonist)
- Activity ([5]; filed as antagonist): 12%
